Test results: paper PMC12525168, “Targeting carA Using Optimized Antisense Peptide Nucleic Acid–Cell-Penetrating Peptide Conjugates in Acinetobacter baumannii: A Novel Antibacterial Approach” (International Journal of Molecular Sciences, 2025)

Legend:
[1] = test system: A. baumannii ATCC 17978; assay: MIC by broth microdilution (CLSI); format: cell-based, Acinetobacter baumannii; details: CAMHB with TES buffer, 37 °C, 18–20 h, at least two independent experiments in duplicate
Text: CPP–PNA conjugates were synthesized by HLB […] Co., LTD. The binding sites within A. baumannii ATCC 17978 were predicted and analyzed using Geneious Prime (version 1 February 2025), enabling precise identification of target regions for subsequent antisense PNA design. Specifically, α-PNA modifications introduced arginine, while γ-PNA modifications incorporated guanidino-lysine. The diverse CPP–PNA and α- and γ-modified PNA oligomers were generated via solid-phase peptide synthesis using benzothiazole sulfonyl and standard fluorenylmethyloxycarbonyl chemistry procedures on an automatic synthesizer (HLB-[…]). The synthesized PNA oligomers were cleaved from the solid support resin using a mixed solution containing trifluoroacetic acid. The PNA mixture separated from the solid support was purified using reverse-phase high-performance liquid chromatography, and the purity and molecular weight were determined and confirmed using high-performance liquid chromatography and matrix-assisted laser desorption/ionization time-of-flight mass spectrometry (Figures S1 and S2). The MIC of each CPP–PNA conjugate was determined using the broth microdilution method in accordance with the Clinical and Laboratory Standards Institute guidelines. A. baumannii ATCC 17978 was used as the test strain. The CPP–PNA conjugates were tested at concentrations of […], 3.125, 6.25, 12.5, 25, and 50 µM in 100 µL of cation-adjusted Mueller–Hinton broth with N-Tris (hydroxymethyl) methyl-2-aminoethanesulfonic acid buffer (CAMHB; T3462; Thermo Fisher Scientific, Waltham, MA, USA). The microdilution plates were incubated at 37 °C for 18–20 h. A minimum of two independent experiments, each performed in duplicate, were conducted to ensure reproducibility.

[2] = test system: A. baumannii ATCC 17978; assay: Bactericidal test: colony count after treatment with 50 µM CPP–PNA; format: cell-based, Acinetobacter baumannii; details: for Bactericidal activity in MBC assay (in words) / Average CFU: 50 µM CPP–PNA; for Average CFU: mean of two plates, plated 24 h; for Average CFU / MBC (CFU) in 50 µM CPP–PNA: 4 h at 37 °C; for MBC (CFU) in 50 µM CPP–PNA: 1 × 10^7 CFU/mL inoculum, 50 µL spread on Muller–Hinton agar, 24 h at 37 °C
Text: Artificially synthesized CPP–PNA (carA, […]) conjugates were used to silence carA. Briefly, carA-specific oligonucleotides were identified from the genomic sequence of A. baumannii ATCC 17978 (CP049363.1). The CPP–PNA conjugates, namely KFFK (FFK)2–PNA, KKFK (FFK)2–PNA, and KKKK (FFK)2–PNA, were synthesized by HLB […] Co., LTD. (Daejeon, Republic of Korea). These conjugates were engineered to specifically bind to the translation initiation region of carA, which includes the TTG start codon and the Shine-Dalgarno sequence (TTTGGT) crucial to ribosomal interaction.
To prepare bacterial suspensions, cultures of A. baumannii ATCC 17978 were grown until the OD600 value reached 0.8. The CPP–PNA conjugates were prepared to achieve concentrations of 50 and 0 µM in a total volume of 100 µL per well in 96-well plates. Subsequently, 10 µL of the adjusted bacterial suspension was inoculated into each well (1 × 10^7 CFU/mL). The plates were then incubated at 37 °C for 4 h. Subsequently, 50 µL of each CPP–PNA conjugate-treated bacterial suspension was spread on Muller–Hinton agar plates, with each condition distributed across two plates. The plates were subsequently incubated at 37 °C for 24 h to enable bacterial growth and colony formation.

Substance | MIC [1] [µM] | Bactericidal activity in MBC assay (in words) [2] | Average CFU [2] | MBC (CFU) in 50 µM CPP–PNA ([2]; plate 1 of two) | MBC (CFU) in 50 µM CPP–PNA ([2]; plate 2 of two)
Control 3 (acpP): KFFK(FFK)2 conjugated to PNA TGATTTGCCAC targeting acpP [reference compound] | 25 | – | – | – | –
Control 4 (ftsZ): KFFK(FFK)2 conjugated to PNA GAGGCCATGAC targeting ftsZ [reference compound] | 50 | – | – | – | –
Control 5 (rne): KFFK(FFK)2 conjugated to PNA ACGTTTCATGG targeting rne [reference compound] | 50 | – | – | – | –
KFFK(FFK)2-CGGGGGTGCTCAA: KFFK(FFK)2 conjugated to 13-mer PNA targeting carA start codon (all peptide nucleic acid (PNA); KFFK(FFK)2 cell-penetrating peptide conjugated to the PNA, attachment site not given here) | >50 | – | – | – | –
KFFK(FFK)2-TCAAA*CCA*AAGCT: KFFK(FFK)2 conjugated to γ-modified 13-mer PNA targeting carA RBS (TCAAACCAAAGCT; KFFK(FFK)2 peptide conjugate, γ-modified PNA, chemistry not fully specified) | 25 | – | – | – | –
KFFK(FFK)2-TCAAACCAAAGCT: KFFK(FFK)2 cell-penetrating peptide conjugated to unmodified 13-mer antisense PNA TCAAACCAAAGCT targeting carA RBS (all peptide nucleic acid (PNA); KFFK(FFK)2 peptide conjugated) | 25 | No A. baumannii colonies were detected | 0 CFU | 0 CFU | 0 CFU
KFFK(FFK)2-TTACTGTTTAGAT: KFFK(FFK)2 conjugated to 13-mer PNA targeting carA stop codon (all peptide nucleic acid (PNA); KFFK(FFK)2 cell-penetrating peptide conjugated to the PNA, attachment site not given here) | 50 | – | – | – | –
KKFK(FFK)2-TCAAACCAAAGCT: KKFK(FFK)2 cell-penetrating peptide conjugated to 13-mer antisense PNA TCAAACCAAAGCT targeting carA (all peptide nucleic acid (PNA); KKFK(FFK)2 peptide conjugated) | – | – | 10.5 CFU | 7 CFU | 14 CFU
KKKK(FFK)2-TCAAACCAAAGCT: KKKK(FFK)2 cell-penetrating peptide conjugated to 13-mer antisense PNA TCAAACCAAAGCT targeting carA (all peptide nucleic acid (PNA); KKKK(FFK)2 peptide conjugated) | – | no bactericidal activity | TNTC | TNTC | TNTC
